# Molecular target: T1, Akt3 (Homo sapiens, UniProt Q9Y243)
# T1 construct: endogenous in cells
# Assay: Akt3 activation activity of selected compounds
# Assay type: cell-based
# T1 sequence (Q9Y243 whole entry): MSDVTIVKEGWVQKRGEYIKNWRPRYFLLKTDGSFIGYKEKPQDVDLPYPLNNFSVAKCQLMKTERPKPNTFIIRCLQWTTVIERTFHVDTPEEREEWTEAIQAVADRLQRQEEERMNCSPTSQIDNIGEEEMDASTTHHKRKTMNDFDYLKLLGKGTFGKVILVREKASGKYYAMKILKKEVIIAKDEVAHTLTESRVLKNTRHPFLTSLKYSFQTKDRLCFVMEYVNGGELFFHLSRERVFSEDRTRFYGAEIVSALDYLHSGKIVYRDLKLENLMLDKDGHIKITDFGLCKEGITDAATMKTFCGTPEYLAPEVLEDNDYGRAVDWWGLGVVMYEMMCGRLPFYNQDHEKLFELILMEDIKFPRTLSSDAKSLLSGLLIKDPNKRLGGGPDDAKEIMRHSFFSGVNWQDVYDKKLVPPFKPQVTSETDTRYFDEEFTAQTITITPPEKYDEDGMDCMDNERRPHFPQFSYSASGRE
row,SMILES,EC50 [nM]
1,"Cc1cc(Nc2ccc3[nH]c(-c4ccc(Nc5cc(C)nc6ccc(N7CCOCC7)cc56)cn4)nc3n2)ccn1 [Compound 70, 2-methyl-N-(6-(5-(2-methylpyridin-4-ylamino)-1H-imidazo [4,5-b]pyridin-2-yl)pyridin-3-yl)-6-morpholinoquinolin-4-amine]",< 2000
2,"Cc1cc(Nc2ccc3[nH]c(-c4ccc(Nc5cc(C)nc6ccc(N7CCOCC7)cc56)nc4)nc3c2)ccn1 [Compound 73, 2-methyl-N-(5-(5-(2-methylpyridin-4-ylamino)-1H-benzo[d]imidazol-2-yl)pyridin-2-yl)-6-morpholinoquinolin-4-amine]",< 50
3,"Cc1cc(Nc2ccc3[nH]c(-c4ccc(Nc5cc(C)nc6ccc(N7CC(C)OC(C)C7)cc56)cn4)nc3c2)ccn1 (stereo not drawn) [Compound 77, 6-(2,6-dimethylmorpholino)-2-methyl-N-(6-(5-(2-methylpyridin-4-ylamino)-1H-benzo[d]imidazol-2-yl)pyridin-3-yl)quinolin-4-amine]",< 50
4,"Cc1cc(Nc2ccc3[nH]c(-c4ccc(Nc5ccnc6ccc(N7CCOCC7)cc56)cn4)nc3c2)ccn1 [Compound 69, N-(6-(5-((2-methylpyridin-4-yl)amino)-1H-benzo[d]imidazol-2-yl)pyridin-3-yl)-6-morpholinoquinolin-4-amine]",< 20
5,"Cc1cc(Nc2ccc3[nH]c(-c4ccc(Nc5cc(C)nc6ccc(N7CC(C)OC(C)C7)cc56)cc4)nc3c2)ccn1 (stereo not drawn) [Compound 76, 6-(2,6-dimethylmorpholino)-2-methyl-N-(4-(5-(2-methylpyridin-4-ylamino)-1H-benzo[d]imidazol-2-yl)phenyl)quinolin-4-amine]",< 50
6,"Cc1cc(Nc2ccc3[nH]c(-c4ccc(Nc5ccnc6ccc(N(C)C)cc56)cc4)nc3c2)ccn1 [Compound 37, N^6,N^6-dimethyl-N^4-(4-(5-((2-methylpyridin-4-yl)amino)-1H-benzo [d]imidazol-2-yl)phenyl)quinoline-4,6-diamine]",< 5000
7,"Cc1cc(Nc2ccc3[nH]c(-c4ccc(Nc5cc(C)nc6ccc(N7CCOCC7)cc56)cn4)nc3c2)ccn1 [Compound 74, 2-methyl-N-(6-(5-(2-methylpyridin-4-ylamino)-1H-benzo[d]imidazol-2-yl)pyridin-3-yl)-6-morpholinoquinolin-4-amine]",< 50
8,"Cc1cc(Nc2ccc3[nH]c(-c4ccc(Nc5ccnc6ccc(N7CC(C)OC(C)C7)cc56)cc4)nc3c2)ccn1 (stereo not drawn) [Compound 75, 6-(2,6-dimethylmorpholino)-N-(4-(5-((2-methylpyridin-4-yl)amino)-1H-benzo[d]imidazol-2-yl)phenyl)quinolin-4-amine]",< 20
9,"Cc1cc(Nc2ccc3[nH]c(-c4ccc(Nc5ccnc6ccc(N7CCOCC7)cc56)nc4)nc3c2)ccn1 [Compound 71, N-(5-(5-((2-methylpyridin-4-yl)amino)-1H-benzo[d]imidazol-2-yl)pyridin-2-yl)-6-morpholinoquinolin-4-amine]",< 50

# Molecular target: T1, Akt3
# Assay: Akt3 inhibition activity of selected compounds
# Assay type: cell-based
row,SMILES,IC50 [nM]
1,"O=C(Nc1cccc(Nc2ccncc2)c1)c1ccc(Nc2ccnc3ccccc23)cc1 [Compound 5, N-(3-(pyridin-4-ylamino)phenyl)-4-(quinolin-4-ylamino)benzamide]",< 2000
2,"O=C(Nc1cccc(Nc2ccncc2)c1)c1ccc(Nc2ccnc3ccc(F)cc23)cc1 [Compound 2, 4-((6-fluoroquinolin-4-yl)amino)-N-(3-(pyridin-4-ylamino)phenyl)benzamide]",< 1000
3,"O=C(Nc1cccc(Nc2ccncc2)c1)c1ccc(Nc2ccncc2)cc1 [Compound 10, 4-(pyridin-4-ylamino)-N-(3-(pyridin-4-ylamino)phenyl)benzamide]",< 1000

# The remaining lines, values ahead:
row,IC50 [nM],SMILES
1,< 5000,"O=C(Nc1cc(Nc2ccncc2)ccn1)c1ccc(Nc2ccncc2)cc1 [Compound 24, 4-(pyridin-4-ylamino)-N-(4-(pyridin-4-ylamino)pyridin-2-yl)benzamide]"
2,< 5000,"Cc1cnc2ccccc2c1Nc1ccc(C(=O)Nc2cccc(Oc3ccncc3)c2)cc1 [Compound 13, 4-((3-methylquinolin-4-yl)amino)-N-(3-(pyridin-4-yloxy)phenyl)benzamide]"
3,< 1000,"O=C(Nc1cccc(Nc2ccnc(F)c2)c1)c1ccc(Nc2ccncc2)cc1 [Compound 31, N-(3-(2-fluoropyridin-4-ylamino)phenyl)-4-(pyridin-4-ylamino)benzamide]"
4,< 500,"Cc1cnc2ccccc2c1Nc1ccc(C(=O)Nc2cccc(Nc3ccncc3)c2)cc1 [Compound 14, 4-((3-methylquinolin-4-yl)amino)-N-(3-(pyridin-4-ylamino)phenyl)benzamide]"
5,< 2000,"Cc1cc(Nc2ccc(C(=O)Nc3cccc(Oc4ccncc4)c3)cc2)c2ccccc2n1 [Compound 15, 4-((2-methylquinolin-4-yl)amino)-N-(3-(pyridin-4-yloxy)phenyl)benzamide]"
6,< 2000,"Cc1cc(Nc2cccc(NC(=O)c3ccc(Nc4ccncc4)cc3)c2)cc(N)n1 [Compound 94, N-(3-(2-amino-6-methylpyridin-4-ylamino)phenyl)-4-(pyridin-4-ylamino)benzamide]"
7,< 5000,"Cc1c(Nc2cccc(NC(=O)c3ccc(Nc4ccncc4)cc3)c2)ccnc1N [Compound 92, N-(3-(2-amino-3-methylpyridin-4-ylamino)phenyl)-4-(pyridin-4-ylamino)benzamide]"
8,< 5000,"N#Cc1cc(Nc2cccc(NC(=O)c3ccc(Nc4ccncc4)cc3)c2)ccn1 [Compound 30, N-(3-(2-cyanopyridin-4-ylamino)phenyl)-4-(pyridin-4-ylamino)benzamide]"
9,< 2000,"Nc1cc(Nc2cccc(NC(=O)c3ccc(Nc4ccncc4)cc3)c2)ccn1 [Compound 93, N-(3-(2-aminopyridin-4-ylamino)phenyl)-4-(pyridin-4-ylamino)benzamide]"
10,< 2000,"Cc1cc(Nc2cccc(NC(=O)c3ccc(Nc4ccncc4)cc3)c2)ccn1 [Compound 22, N-(3-((2-methylpyridin-4-yl)amino)phenyl)-4-(pyridin-4-ylamino)benzamide]"
11,< 5000,"Cc1ccc2c(Nc3ccc(C(=O)Nc4cccc(Oc5ccncc5)c4)cc3)ccnc2c1 [Compound 17, 4-((7-methylquinolin-4-yl)amino)-N-(3-(pyridin-4-yloxy)phenyl)benzamide]"
12,< 2000,"Cc1cc(Nc2ccc(C(=O)Nc3cccc(Nc4ccnc(C)c4)c3)cc2)ccn1 [Compound 23, 4-((2-methylpyridin-4-yl)amino)-N-(3-((2-methylpyridin-4-yl)amino)phenyl)benzamide]"

# Source: patent US20230295114A1, “AKT3 MODULATORS” (Georgiamune LLC, priority 2020, published 2023)
